# Patent publication US10369229B2, “Methods and compositions for liposomal formulation of antigens and uses thereof” (priority 2009, dated 2019)
# How the values were obtained:
# [1] = system: N-MPR (2F5 epitope of HIV-1 gp41 MPR); details: BALB/C mice, Day 28 sera
# Experimental: All animal procedures were conducted in accordance with the policies and approval of the appropriate Institutional Animal Care and Use Committee. 8 week-old female BALB/C mice (Jackson Laboratories, Bar Harbor, Me.) were housed in a pathogen-free barrier facility. Animals received subcutaneous immunizations in alternating hind hocks on Days 0 and 14. Each injection contained 50 μg lipopeptide, 25 μg MPL and 1 μmol lipid vehicle in 50 μL sterile phosphate-buffered saline. On Day 28 blood was collected from the submandibular vein for characterization of antibody responses. Cells were removed by centrifugation at 14,000 rpm for 15 min (5415C, Eppendorf, Westbury, N.Y.) and sera were stored at −80° C. until use.
# ELISAs were developed to quantify binding of immune sera to peptides, lipids, and recombinant gp140. Peptide ELISAs were conducted using MPR peptides biotinylated as described above and captured on 96 well streptavidin-coated plates (#15120, Pierce, Rockford, Ill.). Assays were performed according to the manufacturer's instructions with modifications. […] The reaction was stopped with 0.5M H2SO4 and the yellow product was monitored at 450 nm (Optimax, Molecular Devices, Sunnyvale, Calif.). […] IgG1/IgG2a ratios were calculated as an average of optical density quotients measured at 3 dilutions after subtraction of background values. […]
# [2] = Circular dichroism of liposomal lipopeptides (percent helicity); type: physicochemical; details: formulated in liposomes; estimated from θ222
# Experimental: Liposomal lipopeptide samples were prepared as described above with the following modifications. Stock liposome solutions containing 5 mM carrier lipid and 500 μM lipopeptide were prepared in 10 mM phosphate, pH 7.4. To minimize light scattering, liposomes were prepared by bath sonication under argon until a size of less than 100 nm was obtained. For analysis, samples were diluted to 5 μM lipopeptide in 10 mM phosphate buffer containing 1 mM carrier lipid. Spectra were obtained with a J-715 spectrapolarimeter (Jasco, Easton, Md.) and data were processed using Jasco software. Data were acquired in continuous scanning mode with a pathlength of 1 cm, 0.1 nm interval and scan speed of 1 nm/s. Each spectrum represents an average of two scans. A background spectrum of “empty” liposomes in buffer was subtracted from each sample spectrum. Percent helicity was estimated from θ222 according to the method of Taylor and Kaiser.
substance,measurement,setting,value
N-MPR: peptide corresponding to the 2F5 epitope of HIV-1 gp41 MPR (SEQ ID NO: 2) (NEQELLELDKWASLWNGGK),mice with detected anti-peptide response,[1],2 of 5
same,helicity (helical content),[2],20.7%
